{"source": "patent US20220296714A1", "about": "“TARGETED NANO-PHOTOMEDICINES FOR PHOTODYNAMIC THERAPY OF CANCER” (ERASMUS UNIVERSITY MEDICAL CENTER ROTTERDAM, priority 2009, published 2022)", "key": {"[1]": {"experiment": "Photobleaching under laser irradiation, measured with a fluorescence spectrometer", "format": "physicochemical", "conditions": "total dose 10 J cm^−2, nearly same initial fluorescence intensity", "protocol": "Photobleaching characteristics of free Ce6 and nanophotomedicine (NPM-3) having nearly the same initial florescence intensity (that correlate with concentration of the drug) is compared using a fluorescence spectrometer. Laser irradiation of samples of both products was carried out under identical condition of a total dose of 10 J cm^−2. FIG. 4 illustrates the changes in the fluorescence emission characteristics of both the samples. […] In effect, this leads to long term stability of the drug within the construct even after extended duration of therapy."}, "Leukemia cells K562": {"system": "Leukemia cells K562", "experiment": "Intracellular photobleaching by confocal imaging under 405 nm laser", "format": "cell-based, human", "conditions": "1 μM sensitizer, 3 hrs incubation, 1-360 seconds", "protocol": "Leukemia cells K562 were seeded at 800.000 cells/well in a 12 well tissue culture plate and treated with both free Ce6 (1 μM) and nanophotomedicine (NPM-3) prepared by using the same concentration of the sensitizer. Cells were incubated at 37° C. for 3 hrs before imaging using confocal microscope. Fluorescence imaging was carried out by exciting the sensitizer or nanophotomedicine taken-up by the cells using 405 nm laser. For recording the photobleaching at intracellular regions of the cancer cells, which has significant correlation to therapeutic effects, imaging is carried out after stipulated duration of laser irradiation from 1-360 seconds)."}}, "data": [{"substance": "chlorin e6 [free Ce6]", "values": [{"measurement": "photodose at which the drug is inactivated by photobleaching", "setting": "[1]", "value": 2.5, "unit": "J cm^−2"}, {"measurement": "duration of laser irradiation until intracellular fluorescence is bleached out", "setting": "Leukemia cells K562", "value": 30, "unit": "s"}]}]}
